Results published in patent US20120142750A1, “INDOLEAMINE 2,3-DIOXYGENASE PATHWAYS IN THE GENERATION OF REGULATORY T CELLS” (Regents of the University of Minnesota, priority 2005, published 2012).

Tests used:
CHOP in Tregs = assay: Intracellular CHOP expression in Tregs and OT-I cells cultured with TDLN pDCs; format: cell-based, mouse; settings: 48 hours; with OVA antigen; no bystander cells
Source text: Flow cytometry. Details of the staining protocols are given below. For CHOP and Foxp3 staining, assays were set up without the A1 bystander cells, so that the Tregs were the only CD4^+ cells in the system and thus could be unambiguously followed throughout the assay.
FAGS staining. Antibodies were from BD-Pharmingen unless otherwise noted. Anti-mouse CD25-APC conjugate (clone PC61, cat. #17-0251-81) was from eBioscience: This conjugate gave brighter signal and better separation of CD25^+ cells than other conjugates from other suppliers. For intracellular staining of CHOP, live cells were first blocked for 10 minutes with mouse Fc Block (BD Pharmingen) in 10% fetal calf serum medium, stained with anti-CD4-FITC for 30 minutes on ice, washed with PBS, then fixed and permeablized for 20 minutes in 250 ul Cytoperm/Cytofix solution (BD Pharmingen) on ice. All subsequent staining and wash steps were in BD Permwash solution. Fixed cells were stained with 1:100 dilution of monoclonal anti-gadd153/CHOP (sc-7351, Santa Cruz Biotechnology), washed, and stained with secondary monoclonal rat anti-mouse-IgG1-PE (#550083, BD Biosciences). […] For CHOP staining, assays were set up without A1 bystander cells, so that Tregs were the only CD4^+ cells, and thus could be unambiguously followed throughout the assay. […]

BM3 T cells = assay: Ex vivo T cell suppression assays with sorted Tregs from treated mice; format: in vivo, mouse
Protocol: CpG Oligonucleotides. CpG-ODNs (CpG no. 1826, […]; (SEQ ID NO:4) and sequence matched non-CpG-B no. 2138, […] (SEQ ID NO:5)) with fully phosphorothioate backbones were purchased from Coley Pharmaceuticals. Mice were injected with relatively high doses of ODNs (50 μg/mouse, i/v) as described (Mellor et al. J Immunol 2005; 175:5601-5605).
1-methyl-[D]-tryptophan (1 mT). 1 mT (catalog number 45, 248-3, Sigma) was prepared as a 20 mM stock solution in 0.1 N NaOH, adjusted to pH 7.4, and stored at −20° C. protected from light. For in vitro use, 1 mT was added to MLRs to a final concentration of 100 μM. For in vivo treatment, slow-release polymer pellets (*5 mg/day) containing 1 mT or vehicle alone were inserted under the dorsal skin as described (Munn et al. Science 1998; 281:1191-1193) 24 hours before CpG treatment.
Preparative flow cytometry to sort CD4+ T cells subsets. CD4+ T cell subsets were purified using a Mo-Flo cytometer as described (Mellor et al. J Immunol 2005; 175:5601-5605; Munn et al. Immunity 2005; 22:1-10).
Ex vivo T cell suppression assays. Suppression assays were performed by adding sorted CD4+ cells to T cell proliferation assays (72 hour thymidine incorporation assays) containing responder H-2K^b-specific splenocytes from BM3 TCR transgenic mice (nylon-wool enriched) and CD11c+ splenocytes (AutoMacs enriched) from CBK (H-2K^b transgenic CBA) mice prepared as described (Mellor et al. J Immunol 2005; 175:5601-5605).

PDCs = assay: Surface expression of CD80, CD86, HLA-DR on PDCs (flow cytometry); format: cell-based, human; settings: 1MT added to priming MLRs with CpG ODN
Source text: PDC, B, and T cell isolation. Human PBMC were isolated under IRE-approved protocols from apheresis products of healthy blood donors (Memorial Blood Centers of Minnesota, Minneapolis, Minn.) by Ficoll-Paque density gradient centrifugation. Plasmascytoid dendritic cells (PDCs) were isolated from PBMC using BDCA-4 cell isolation kits and the MACS system, followed by staining and sorting to collect purified Lin-CD11c-CD123+ PDCs, as reported previously (Moseman et al., J Immunol 2004; 173:4433-4442). CD4+CD45RA+ naïve T cells were isolated from PBMC using CD4 T cell isolation kits followed by positive selection with CD45RA microbeads. The purity of naïve CD4+ T cells was greater than 95% for CD4+CD45RA+ expression and less than 0.5% for CD25+ expression. B cells were isolated from PBMC with CD19 microbeads and the MACS system to greater than 98% purity of CD19+ B cells. All cell isolations kits and microbeads were from Miltenyi Biotec (Bergisch Gladbach, Germany).
Flow Cytometry. Fluorescent antibodies (Abs) against human CD3, CD4, CD11c, CD19, CD25, CD40, CD45, CD45RA, CD45RO, CD80, CD86, CD123, HLA-DR, lineage (Lin) markers, and isotype control Abs were from BD Biosciences (San Diego, Calif.). […] Mean fluorescence intensity (MFI) and positive cell percentages of stained cells were determined by flow cytometry.

[1] = test system: Tregs from draining lymph nodes; assay: Adoptive transfer of TDLN DCs and ex-vivo Treg assay; format: in vivo, mouse; settings: sustained-release pellets; Tregs isolated after four days
Source text: Adoptive transfer and ex-vivo Treg assay. The adoptive transfer model has been previously described (Munn et al., Immunit), 2005; 22:633-642; and Munn et al., J. Clin. Invest. 2004a; 114; 280-290). Briefly, DCs were sorted from TDLNs (total CD11c^+ cells), pulsed with […] (SEQ ID NO:1) peptide, and 5×10^4 DCs injected into anteriomedial thigh. For studies measuring ex vivo Treg suppressor activity, the recipient mice were pre-loaded with 5×10^6 sorted CD8^+ T-I cells. After four days, the inguinal LNs draining the site of DC injection were removed, and the CD4^+CD25^+ Tregs were isolated by FACS sorting. A titration of Tregs was added to readout assays, comprising CD4^+ A1 cells, CBA DCs, feeder layer, and H—Y peptide, all as described above. For CFSE proliferation studies, CD8^+ OT-I (wild-type or GCN2-KO background) were sorted, labeled with CFSE, and 5×10^6 cells injected intravenously into wild-type or GCN2-KO recipients. OVA-pulsed DCs from TDLNs were injected as above, and the inguinal (draining) LNs harvested after four days. LN cells were analyzed by FACS for CD8 vs 1B11 vs CFSE.

In the case of `Cn1cc(C[C@@H](N)C(=O)O)c2ccccc21` [Inhibitor 1MT, 1-methyl-D-tryptophan], the “CHOP induction in Tregs (and OT-I)” value (CHOP in Tregs) is reported as “abrogated”, the “reversal of Treg-mediated suppression by IDO inhibitor added to parallel cultures” value (BM3 T cells; 100 μM in culture, Tregs from CpG-treated mice) is reported as “did not reverse suppression” and the “CpG-mediated stimulation of Treg suppressive functions, IDO inhibitor given to Treg donor mice” value (BM3 T cells; slow-release pellets 24 hours before CpG, IDO-WT mice) is reported as “prevented CpG-mediated stimulation of Treg suppressive functions”. For the same molecule, the “expression of cell surface maturation markers by PDCs (CD80, CD86, HLA-DR)” value (PDCs) was “insignificant effects” and the “ex vivo suppressor activity of Tregs from recipient mice given IDO+ DCs” value [1] was “did not develop ex vivo suppressor activity”.
